Each structure is given as a SMILES string. Values joined by “and” are separate entries in the source; they are usually repeats but may differ in a detail not shown here. Identical values can stand only once. Like-named read-outs stand apart in the source and are kept apart here.

For series [1], the system named is healthy subjects. Conditions: Phase 4.
Source text: (§1) Mild hypothermia is induced and maintained in healthy subjects for up to several hours. […] Each volunteer is cooled using contact-cooling pads (Arctic Sun Energy Transfer Pads™, Medivance, Inc., Louisville, Colo., U.S.A.). Contact-cooling pads are applied to contact the subjects, and water at a controlled temperature is delivered to and circulated through the contact pads to effect the controlled cooling of each volunteer.
The test system of series [2] is healthy subjects. The note with it: Phase 6. The text has this:
Mild hypothermia is induced and maintained in healthy subjects for up to several hours. Table 1 summarizes data concerning the subjects for each phase of testing (Phases 1, 3a, 4, 5 and 6). Each volunteer is cooled using contact-cooling pads (Arctic Sun Energy Transfer Pads™, Medivance, Inc., Louisville, Colo., U.S.A.). Contact-cooling pads are applied to contact the subjects, and water at a controlled temperature is delivered to and circulated through the contact pads to effect the controlled cooling of each volunteer.
Five contact-cooling pads are applied to the thighs, back and abdomen of each subjects, and actively cooled. The pads cover and contact about 0.6 square meter of the subject's exterior body surface area, which is the area in heat transfer communication between the pads and the subject's body. Temperatures are measured in the same manner as in Phase 1 except that the rectal temperature probe is connected to a control module and the rectal temperature signal is used by the control module to adjust inlet water temperature via a feedback control algorithm to achieve a target core body temperature of 34.5° C.
A single oral dose of acetaminophen (1000 mg), is administered within 20 minutes prior to treatment. A bolus of IV meperidine (Demerol®, 50-100 mg) is given within 5 minutes of the start of active cooling. Additional doses of meperidine are administered to maintain comfort and to prevent shivering. Active cooling and maintenance of hypothermia continues for five hours. As in the Phase 1, the subjects are actively re-warmed to a tympanic and rectal temperatures of at least of 36° C. prior to termination of the experiment. Shivering, comfort, oxyhemoglobin saturation, and arterial blood pressure are recorded as in Phase 1.
Phase 5 Phase 5 proceeds as described for Phase 3a, except as noted. The temperature of water circulated to the contact-cooling pads is controlled to achieve a target core body temperature of 34.5° C. In addition to meperidine (Demerol®), subjects are also given an IV dose of 8 mg ondansetron (hydrochloride salt, Glaxo Wellcome). […]

Series [3] has as its system healthy subjects. Kind of series: Phase 3a: cooling with five contact-cooling pads under meperidine. In kind it is in vivo, human.
Source text: as §1
Series [4] relates to healthy subjects. Description: Phase 5: cooling under meperidine plus IV ondansetron. In kind it is in vivo, human.
For series [5], the system named is healthy subjects. Description: Phase 1: cooling of healthy subjects with contact-cooling pads under meperidine. It is filed as in vivo, human. The protocol: Four contact pads are applied to the thighs and chest of each subject and each subject is rapidly cooled with an objective of reducing core body temperature to 34-35° C. Core body temperatures are measured at the tympanic membrane and the rectum. Mean skin-surface temperature is determined from the weighted average of calf, thigh, chest, and upper arm skin temperatures. Thermoregulatory vasoconstriction is evaluated using forearm minus fingertip skin-temperature gradients. Temperatures are measured using Mon-a-Therm™ themocouple probes connected to Mallinckrodt Model 6510 two-channel electronic thermometers having an accuracy near 0.1° C. (Mallinckrodt Anesthesia Products, St. Louis, Mo., U.S.A.). Temperatures are recorded before cooling is started (i.e., baseline) and subsequently at 15-minute intervals.
Each of subjects 1-5 is administered a single dose of acetomiophen (1000 mg) within 20 minutes prior to treatment and is administered a bolus of intravenous (IV) meperidine (Demerol®, 25-75 mg) within 5 minutes of the start of cooling. Subjects also receive initial doses of chlorpromazine (Thorazine®, 12.5-25 mg, IV). Active cooling is initiated and the inlet water temperature is controlled to achieve a target tympanic temperature between 34° C. and 35° C. Additional doses of meperidine and/or chloropromazine are administered to maintain comfort and to prevent shivering. Active cooling and maintenance of hypothermia continues for up to five hours, after which subjects are actively re-warmed to tympanic and rectal temperatures of at least 36° C.
The presence of shivering is noted by physical examination, electromyographic artifact on continuous electrocardiography (ECG), or by subject report. Overall thermal comfort is evaluated at 15-min intervals with a 100-mm-long visual analog scale (VAS) on which 0 mm defines the worst imaginable cold, 50 mm identifies thermal neutrality, and 100 mm indicates unbearable heat. A new, unmarked scale is used for each assessment. Heart rate and oxyhemoglobin saturation are monitored using ECG and pulse oximetry; arterial blood pressure is recorded oscillometrically at 15-minute intervals.

Series [6] relates to healthy subjects. Kind of series: Subsequent test similar to Phase 5 with supplemental ondansetron dose. It is filed as in vivo, human. Conditions: one subject; ondansetron 8 mg initial dose and 8 mg supplemental dose 3.5 hours later. The protocol: Moreover, during a subsequent test conducted in a manner similar to that described for Phase 5, a subject is administered an initial dose of 8 mg of the ondansetron followed by a supplemental dose of 8 mg of the ondansetron administered 3.5 hours later.

[7] abbreviates: meperidine plus buspirone, mean of 4 subjects.
[8] abbreviates: meperidine, ondansetron and magnesium sulfate, mean of 8 subjects.
Where [9] appears, read: Phase 3a, meperidine regimen, individual subjects.
The mark [10] stands for this setting: Phase 3a, meperidine regimen, mean of 5 subjects.
Where [11] appears, read: meperidine regimen, mean of 5 subjects.
Where [12] appears, read: Phase 5, meperidine plus ondansetron, mean of 6 subjects.

As for `O=C1CC2(CCCC2)CC(=O)N1CCCCN1CCN(c2ncccn2)CC1` [buspirone], in the series with healthy subjects [1] (setting [7]), the “Cooling rate to 35° C., Mean ± SD” value was found to be 1.2 ± 0.4 ° C./hr and the “Time to 35° C., Mean ± SD” value came out at 109 ± 40 min. Moreover, in the series on healthy subjects [1] (oral buspirone 30-60 mg with meperidine, four subjects), the “effect on incidence of nausea” value was “did not reduce the incidence of nausea”.
For the compound `O=S(=O)([O-])[O-].[Mg+2]` [magnesium sulfate], in the series with healthy subjects [2] (early stages of cooling), the “indications of vasodilation (Tdig being larger than Tfore)” value is recorded as “seven of eight subjects”. In the series on healthy subjects [2] (setting [8]), the “Cooling rate to 35° C., Mean ± SD” value is on record as 1.3 ± 0.4 ° C./hr and the “Time to 35° C., Mean ± SD” value turned out to be 86 ± 23 min.
Consider `CCOC(=O)C1(c2ccccc2)CCN(C)CC1` [meperidine], for which, in the series with healthy subjects [3] (Phase 3a, 180 min timepoint, baseline 122±13, p=0.042), the Systolic blood pressure is 140±20 mm Hg. In addition, in the series on healthy subjects [3] (Phase 3a, all subjects, during cooling), the “change in heart rate, diastolic blood pressure, or blood oxygenation compared with baseline” value is “no statistically significant change”. Moreover, the “Time to 35° C.” value with healthy subjects [3] (Phase 3a, five contact-cooling pads, oral acetaminophen 1000 mg, IV meperidine 50-100 mg bolus plus additional doses, tympanic temperature, individual subjects) is 64 min and 180 min and 94 min and 56 min and 46 min; in the series with healthy subjects [5] (four contact pads, acetaminophen 1000 mg, IV meperidine 25-75 mg bolus plus additional doses, chlorpromazine, tympanic temperature, individual subjects), 105 min and 78 min and 41 min and 82 min and 81 min. Also, the “Cooling rate to 35° C.” value in the series with healthy subjects [3] (setting [9]) was 1.9 ° C./hr (2×) and .9 ° C./hr and 1.2 ° C./hr and 2.1 ° C./hr; with healthy subjects [5] (meperidine regimen, tympanic temperature, individual subjects), 1.0 ° C./hr and 1.5 ° C./hr and 2.6 ° C./hr and 1.2 ° C./hr and 1.4 ° C./hr. Moreover, the “Nausea or Vomiting During Treatment” value in the series on healthy subjects [3] (setting [9]) is “Nausea end (2×) and None and Nausea early, end and Nausea, vomiting mid”; in the series with healthy subjects [5] (meperidine regimen, individual subjects), “None”. Also, the “Cooling rate to 35° C., Mean ± SD” value in the series with healthy subjects [3] (setting [10]) is 1.6 ± 0.5 ° C./hr; with healthy subjects [5] (setting [11]), 1.5±0.6 ° C./hr and 1.5 ± .6 ° C./hr. The results for the “Time to 35° C., Mean ± SD” value in the series on healthy subjects [3] (setting [10]) and in the series with healthy subjects [5] (setting [11]) were 88 ± 54 min and 77 ± 23 min, respectively. The respiratory compromise entry with healthy subjects [3] (Phases 1 and 3a) is “no respiratory compromise”. In addition, the “nausea observed, share of subjects” value with healthy subjects [3] (Phases 1 and 3a pooled, all cases in Phase 3a) is 30 % of subjects. Further, the “indications of vasodilation (Tdig being larger than Tfore)” value in the series with healthy subjects [3] (Phases 3a, 4 and 5 (no vasodilation drug), early stages of cooling) is “only a few of the subjects”. Moreover, the allergic reaction result in the series on healthy subjects [4] (Phase 5, one subject withdrawn, facial rash) is on record as “mild allergic reaction”.
`Cc1nccn1CC1CCc2c(c3ccccc3n2C)C1=O` (stereo not drawn) [ondansetron]: the “Cumulative Heat Transfer From Subject, 5 Min” value in the series on healthy subjects [4] (Phase 5, 5 Min after initiation of cooling, gross values, corrected values approximately 15% smaller, individual subjects) is 53.91 kcal and 37.16 kcal and 48.61 kcal and 45.90 kcal and 44.85 kcal. Further, the “Cumulative Heat Transfer From Subject, 10 Min” value in the series with healthy subjects [4] (Phase 5, 10 Min after initiation of cooling, gross values, individual subjects) is 96.81 kcal and 73.79 kcal and 84.78 kcal and 82.99 kcal and 79.01 kcal. The “Cumulative Heat Transfer From Subject, 15 Min” value with healthy subjects [4] (Phase 5, 15 Min after initiation of cooling, gross values, individual subjects) is 136.59 kcal and 109.68 kcal and 124.12 kcal and 118.51 kcal and 111.35 kcal. Besides, the “Cumulative Heat Transfer From Subject, 20 Min” value with healthy subjects [4] (Phase 5, 20 Min after initiation of cooling, gross values, individual subjects) is 175.59 kcal and 142.73 kcal and 163.01 kcal and 151.96 kcal and 142.43 kcal. For the same compound, the “Cumulative Heat Transfer From Subject, 25 Min” value in the series with healthy subjects [4] (Phase 5, 25 Min after initiation of cooling, gross values, individual subjects) was 214.2 kcal and 169.85 kcal and 200.85 kcal and 184.79 kcal and 172.00 kcal. For the same compound, the “Cumulative Heat Transfer From Subject, 30 Min” value in the series on healthy subjects [4] (Phase 5, 30 Min after initiation of cooling, gross values, individual subjects) is 252.02 kcal and 184.74 kcal and 239.02 kcal and 218.02 kcal and 201.44 kcal. In the series on healthy subjects [4] (Phase 5, 45 Min after initiation of cooling, gross values, individual subjects), the “Cumulative Heat Transfer From Subject, 45 Min” value is 360.32 kcal and 205.19 kcal and 354.67 kcal and 309.30 kcal and 282.20 kcal. Further, the “Cumulative Heat Transfer From Subject, 60 Min” value with healthy subjects [4] (Phase 5, 60 Min after initiation of cooling, gross values, individual subjects) is 466.28 kcal and 212.94 kcal and 467.30 kcal and 346.56 kcal and 353.28 kcal. In addition, the “Cumulative Heat Transfer From Subject, 75 Min” value with healthy subjects [4] (Phase 5, 75 Min after initiation of cooling, gross values, individual subjects) was 567.71 kcal and 284.94 kcal and 574.88 kcal and 361.63 kcal and 423.43 kcal. Also, the “Cumulative Heat Transfer From Subject, 90 Min” value in the series with healthy subjects [4] (Phase 5, 90 Min after initiation of cooling, gross values, individual subjects) was 667.78 kcal and 348.14 kcal and 676.99 kcal and 367.39 kcal and 436.35 kcal. For the same compound, in the series on healthy subjects [4] (Phase 5, 105 Min after initiation of cooling, gross values, individual subjects), the “Cumulative Heat Transfer From Subject, 105 Min” value was 767.83 kcal and 375.85 kcal and 708.76 kcal and 366.43 kcal and 458.46 kcal. The “Cumulative Heat Transfer From Subject, 120 Min” value in the series with healthy subjects [4] (Phase 5, 120 Min after initiation of cooling, gross values, individual subjects) was 867.73 kcal and 407.01 kcal and 733.20 kcal and 368.56 kcal and 457.78 kcal. In addition, in the series on healthy subjects [4] (Phase 5, IV ondansetron 8 mg with meperidine, relative to Phases 3a and 4), the “effect on incidence of nausea and vomiting” value was “reduces the incidence of nausea and vomiting”. For the same compound, the “Time to 35° C.” value in the series with healthy subjects [4] (Phase 5, as Phase 3a (meperidine) plus IV ondansetron 8 mg, individual subjects) is 58 min and 88 min and 310 min and 189 min and 60 min and 80 min. Also, the “Cooling rate to 35° C.” value with healthy subjects [4] (Phase 5, meperidine plus IV ondansetron 8 mg, individual subjects) is 1.4 ° C./hr and 1.6 ° C./hr and 0.5 ° C./hr and 0.6 ° C./hr and 1.9 ° C./hr and 1.5 ° C./hr. Also, in the series with healthy subjects [4] (setting [12]), the “Cooling rate to 35° C., Mean ± SD” value was 1.3 ° C./hr and 1.3 ± 0.6 ° C./hr; the “Time to 35° C., Mean ± SD” value worked out at 131 ± 100 min. The “meperidine administration relative to Phase 3a” value in the series with healthy subjects [4] (Phase 5, p=0.26, t-test) is given as “trend toward less meperidine administration”. For the same compound, the mean comfort score result in the series with healthy subjects [4] (Phase 5 versus Phases 1, 3a and 4) was “higher”. In the series on healthy subjects [6], the nausea entry is reported as “does not experience nausea”.

Values taken from patent publication US7361186B2, “Active body cooling with vasodilation to reduce body temperature” (priority 2003, dated 2008).
